# Tests used:
# Experiment in all cases: Post-emergence glasshouse spray test, visual percentage phytotoxicity after 13 days
# Format in all cases: in vivo
# [1] = tested on: Abutilon threophrasti (ABUTH); settings: for ABUTH percentage phytotoxicity: B1
# Description: (§1) Seeds of Setaria faberi (SETFA), Echinochloa crus-galli (ECHCG), Digitaria sanguinalis (DIGSA), Lolium perenne (LOLPE), Alopecurus myosuroides (ALOMY), Chenopodium album (CHEAL), Ipomoea hederacea (IPOHE), Stellaria media (STEME), Abutilon threophrasti (ABUTH), Amaranthus retroflexus (AMARE) were sown in standard sterilised soil in pots. After cultivation for 8 days under controlled conditions in a glasshouse (at 24/19° C., day/night; 16 hours light; no humidity control), the plants were sprayed at 500 l/Ha with an aqueous spray solution derived from the formulation of the technical active ingredients in a small amount of acetone and a solvent and emulsifier mixture referred to as IF50 (11.12% Emulsogen EL360™+44.44% N-methylpyrrolidone+44.44% Dowanol DPM glycol ether), to create a 50 g/l solution which was then diluted using 0.2% Genapol XO80 (CAS Number: 9043-30-5) as diluent to give the desired final dose of test compound.
# (§2) Where active ingredients were applied as mixtures, aqueous spray solutions were prepared as above, containing both active ingredients.
# (§3) The test plants were then grown under controlled conditions in a glasshouse (at 24/18° C., day/night; 15 hours light; 50% humidity) and watered twice daily. After 13 days, the test was evaluated visually for percentage phytotoxicity to the plants (where 100=total damage to plant; 0=no damage to plant; and NC=not captured) when compared to control untreated plants. Two to four replicates were applied for each treatment in a randomised block test design.
# (§4) 22., E=X+Y−(X*Y/100), where
# (§5) X=average percent phytotoxicity of herbicide A when applied at a certain rate Y=average percent phytotoxicity using herbicide B when applied at a certain rate E=the expected effect of the mixture of herbicides A and B as calculated from the Colby formula.
# [2] = tested on: Alopecurus myosuroides (ALOMY); settings: for ALOMY percentage phytotoxicity: B1
# Description: as §1, §2, §3, §4, §5
# [3] = tested on: Amaranthus retroflexus (AMARE); settings: for AMARE percentage phytotoxicity: B1
# Description: as §1, §2, §3, §4, §5
# [4] = tested on: Chenopodium album (CHEAL); settings: for CHEAL percentage phytotoxicity: B1
# Description: as §1, §2, §3, §4, §5
# [5] = tested on: Digitaria sanguinalis (DIGSA); settings: for DIGSA percentage phytotoxicity: B1; for Observed phytotoxicity DIGSA: B2.4.2
# Description: as §1, §2, §3, §4, §5
# [6] = tested on: Ipomoea hederacea (IPOHE); settings: for IPOHE percentage phytotoxicity: B1; for Observed phytotoxicity IPOHE: B2.4.5
# Description: as §1, §2, §3, §4, §5
# [7] = tested on: Lolium perenne (LOLPE); settings: for LOLPE percentage phytotoxicity: B1; for Observed phytotoxicity LOLPE: B2.4.3
# Description: as §1, §2, §3, §4, §5
# [8] = tested on: Setaria faberi (SETFA); settings: for SETFA percentage phytotoxicity: B1
# Description: as §1, §2, §3, §4, §5
# [9] = tested on: Stellaria media (STEME); settings: B1
# Description: as §1, §2, §3, §4, §5
structure (smiles),measurement,setting,value
CS(=O)(=O)c1ccc(C(=O)C2C(=O)CCCC2=O)c(Cl)c1OCCC1OCCO1 [B-II],ABUTH percentage phytotoxicity,[1]; 0.625 g/ha post-emergence,3%
same,ABUTH percentage phytotoxicity,[1]; 1.25 g/ha post-emergence,38%
same,ABUTH percentage phytotoxicity,[1]; 2.5 g/ha post-emergence,50%
same,ABUTH percentage phytotoxicity,[1]; 5 g/ha post-emergence,58%
same,ABUTH percentage phytotoxicity,[1]; 10 g/ha post-emergence,63%
same,Observed phytotoxicity ABUTH,"[1]; B2.4.6, 0.625 g/ha post-emergence",3%
same,ALOMY percentage phytotoxicity,[2]; 0.625 g/ha post-emergence,0%
same,ALOMY percentage phytotoxicity,[2]; 1.25 g/ha post-emergence,0%
same,ALOMY percentage phytotoxicity,[2]; 2.5 g/ha post-emergence,0%
same,ALOMY percentage phytotoxicity,[2]; 5 g/ha post-emergence,0%
same,ALOMY percentage phytotoxicity,[2]; 10 g/ha post-emergence,0%
same,Observed phytotoxicity ALOMY,"[2]; B2.4.4, 10 g/ha post-emergence",0%
same,AMARE percentage phytotoxicity,[3]; 0.625 g/ha post-emergence,0%
same,AMARE percentage phytotoxicity,[3]; 1.25 g/ha post-emergence,5%
same,AMARE percentage phytotoxicity,[3]; 2.5 g/ha post-emergence,10%
same,AMARE percentage phytotoxicity,[3]; 5 g/ha post-emergence,28%
same,AMARE percentage phytotoxicity,[3]; 10 g/ha post-emergence,48%
same,Observed phytotoxicity AMARE,"[3]; B2.4.8, 2.5 g/ha post-emergence",10%
same,CHEAL percentage phytotoxicity,[4]; 0.625 g/ha post-emergence,0%
same,CHEAL percentage phytotoxicity,[4]; 1.25 g/ha post-emergence,0%
same,CHEAL percentage phytotoxicity,[4]; 2.5 g/ha post-emergence,38%
same,CHEAL percentage phytotoxicity,[4]; 5 g/ha post-emergence,53%
same,CHEAL percentage phytotoxicity,[4]; 10 g/ha post-emergence,65%
same,Observed phytotoxicity CHEAL,"[4]; B2.4.7, 1.25 g/ha post-emergence",0%
same,DIGSA percentage phytotoxicity,[5]; 0.625 g/ha post-emergence,0%
same,DIGSA percentage phytotoxicity,[5]; 1.25 g/ha post-emergence,0%
same,DIGSA percentage phytotoxicity,[5]; 2.5 g/ha post-emergence,0%
same,DIGSA percentage phytotoxicity,[5]; 5 g/ha post-emergence,0%
same,DIGSA percentage phytotoxicity,[5]; 10 g/ha post-emergence,0%
same,Observed phytotoxicity DIGSA,[5]; 2.5 g/ha post-emergence,0%
same,Observed phytotoxicity DIGSA,[5]; 5 g/ha post-emergence,0%
same,Observed phytotoxicity DIGSA,[5]; 10 g/ha post-emergence,0%
same,IPOHE percentage phytotoxicity,[6]; 0.625 g/ha post-emergence,3%
same,IPOHE percentage phytotoxicity,[6]; 1.25 g/ha post-emergence,10%
same,IPOHE percentage phytotoxicity,[6]; 2.5 g/ha post-emergence,23%
same,IPOHE percentage phytotoxicity,[6]; 5 g/ha post-emergence,38%
same,IPOHE percentage phytotoxicity,[6]; 10 g/ha post-emergence,48%
same,Observed phytotoxicity IPOHE,[6]; 2.5 g/ha post-emergence,23%
same,Observed phytotoxicity IPOHE,[6]; 10 g/ha post-emergence,48%
same,LOLPE percentage phytotoxicity,[7]; 0.625 g/ha post-emergence,0%
same,LOLPE percentage phytotoxicity,[7]; 1.25 g/ha post-emergence,0%
same,LOLPE percentage phytotoxicity,[7]; 2.5 g/ha post-emergence,0%
same,LOLPE percentage phytotoxicity,[7]; 5 g/ha post-emergence,0%
same,LOLPE percentage phytotoxicity,[7]; 10 g/ha post-emergence,0%
same,Observed phytotoxicity LOLPE,[7]; 5 g/ha post-emergence,0%
same,Observed phytotoxicity LOLPE,[7]; 10 g/ha post-emergence,0%
same,SETFA percentage phytotoxicity,[8]; 0.625 g/ha post-emergence,0%
same,SETFA percentage phytotoxicity,[8]; 1.25 g/ha post-emergence,0%
same,SETFA percentage phytotoxicity,[8]; 2.5 g/ha post-emergence,0%
same,SETFA percentage phytotoxicity,[8]; 5 g/ha post-emergence,0%
same,SETFA percentage phytotoxicity,[8]; 10 g/ha post-emergence,3%
same,Observed phytotoxicity SETFA,"[8]; B2.4.1, 5 g/ha post-emergence",0%
same,STEME percentage phytotoxicity,[9]; 0.625 g/ha post-emergence,0%
same,STEME percentage phytotoxicity,[9]; 1.25 g/ha post-emergence,13%
same,STEME percentage phytotoxicity,[9]; 2.5 g/ha post-emergence,45%
same,STEME percentage phytotoxicity,[9]; 5 g/ha post-emergence,35%
same,STEME percentage phytotoxicity,[9]; 10 g/ha post-emergence,38%
